As a reminder, the pKa is the pH at which an ionisable group is half protonated. Read a low pKa as a group that gives up its proton readily.

The record followed here is ChEMBL document CHEMBL1124973 (J Med Chem, 1990).

In series [1] the target is T1, Muscarinic acetylcholine receptor (Rattus norvegicus) (UniProt P08482+P08483+P08485+P08911+P10980).
Description: In vitro binding affinity against muscarinic acetylcholine receptor from rat cortical homogenates using [3H]N-methylscopolamine as radioligand
Series [2] addresses T1, Muscarinic acetylcholine receptor (Rattus norvegicus). The source holds these as a separate data set.
Description: In vitro binding affinity against muscarinic acetylcholine receptor from rat cortical homogenates using [3H]oxotremorine-M radioligand
The nature of series [3]: pKa value was measured. In kind it is physicochemical.
The target of series [4] is T1, Muscarinic acetylcholine receptor (Rattus norvegicus). Briefly: The selectivity ratio of Kapp of NMS/OXO -M. Format: protein assay.

On to `C[N+](C)(C)CCOC(N)=O`, for which the K app in series [1] was determined as 22 µM; in series [2], 0.0049 µM.
As for `CN1CCNC(c2nc(N)no2)C1` (stereo not given), the pKa in series [3] is 6.2. The Ratio in series [4] was above 5.5. Besides, the K app in series [1] is above 50 µM; in series [2], 9.1 µM.
As for `Nc1noc(C2CCNC2)n1` (stereo not given), the K app in series [1] was 21 µM; in series [2] it was 0.04 µM.
In series [3], `CN1CCN(C)C(c2nc(N)no2)C1` (stereo not given) gave a pKa of 6. Also, the K app was above 50 µM in series [1] and above 14 µM in series [2].
`Cc1noc(C2=CCCN(C)C2)n1`: the K app in series [1] was 2.1 µM; in series [2], 0.0054 µM.
The corresponding values for `Cc1noc(C2=CCCNC2)n1` are 2.4 µM and 0.0016 µM.
As for `Nc1noc(C2CN3CCCC2C3)n1` (stereo in doubt; 17a), the K app in series [1] was found to be 0.77 µM; in series [2], 0.00067 µM.
The corresponding values for `Cc1noc(C2CN3CCC2C3)n1` (stereo in doubt; 15b) are 3.6 µM and 0.0021 µM.
As to `Nc1noc(C2CN3CCC2CC3)n1` (stereo not given), the values for the K app in series [1] and in series [2] were 0.6 µM and 0.00047 µM, respectively.
The like results for `Nc1noc(C2CN3CCCC2C3)n1` (stereo in doubt; 17b) were, in that order, 1.8 µM and 0.003 µM.
For the molecule `Cc1noc(CN(C)C)n1`, the pKa in series [3] was 5.6. Also, the K app in series [1] is above 50 µM; in series [2], 3.3 µM.
On to `Nc1noc(C2=CCCNC2)n1`, for which the K app in series [1] was 3.3 µM; in series [2], 0.0017 µM.
The like results for `CN1CCC(c2nc(N)no2)C1` (stereo not given) were, in that order, 17 µM and 0.01 µM.
For the molecule `Nc1noc(C2CN3CCC2C3)n1` (stereo in doubt; 16a), the K app is 0.031 µM in series [1] and below 4.3e-05 µM in series [2].
`Cc1noc(C2CCCCN(C)C2)n1` (stereo not given): the K app in series [1] was 18 µM; in series [2], 0.73 µM.
Consider `Cc1noc(C2CN3CCC2CC3)n1` (stereo not given), for which the K app stood at 0.44 µM in series [1] and 0.00096 µM in series [2].
Regarding `Cc1noc(C2CC3CCC2N(C)C3)n1` (stereo in doubt; 23a), the K app in series [1] turned out to be 8.9 µM; in series [2] it was 0.3 µM.
Take `Cc1noc(C2CN3CCN2CC3)n1` (stereo not given): the pKa in series [3] stood at 6. The results for the K app in series [1] and in series [2] were 36 µM and 0.44 µM, respectively.
`Cc1noc(C2CCCN(C)C2)n1` (stereo not given): the values for the K app in series [1] and in series [2] were 54 µM and 0.43 µM, respectively.
For the molecule `CN1CCCC(c2nc(N)no2)C1` (stereo not given), the K app in series [1] came to 53 µM; in series [2], 0.24 µM.
Turning to `Nc1noc(C2CN3CCN2CC3)n1` (stereo not given), the pKa in series [3] was determined as 6.3. In addition, the K app in series [1] was above 50 µM; in series [2] it was 0.13 µM.
With `Cc1noc(C[N+](C)(C)C)n1`, the figures for the K app in series [1] and in series [2] were 3.6 µM and 0.0014 µM, respectively.
The corresponding values for `Cc1noc(C2CCN(C)C2)n1` (stereo not given) are 27 µM and 0.024 µM.
As to `Nc1noc(C2CNCCN2)n1` (stereo not given), in series [3], the pKa worked out at 7.1. The Ratio in series [4] was above 100. The results for the K app in series [1] and in series [2] were above 50 µM and 0.45 µM, respectively.
The like results for `Cc1noc(C2CN(C)CCN2)n1` (stereo not given) were, in that order, 6.2, above 6.6, above 50 µM and 7.6 µM.
Take `Cc1noc(C2CC3CCC2NC3)n1` (stereo in doubt; 22a): the K app in series [1] was determined as 1.1 µM; in series [2], 0.0032 µM.
`Cc1noc(C2CNCCN2)n1` (stereo not given): the pKa in series [3] is 7.1. The results for the K app in series [1] and in series [2] were above 50 µM and 0.64 µM, respectively.
As for `Cc1noc(C2CC3CCC2N(C)C3)n1` (stereo in doubt; 23b), the K app came to 29 µM in series [1] and 0.95 µM in series [2].
Turning to `Nc1noc(C2CN3CCC2C3)n1` (stereo in doubt; 16b), the figures for the K app in series [1] and in series [2] were 1.6 µM and 0.0015 µM, respectively.
The like results for `Cc1noc(C2CN3CCC2C3)n1` (stereo in doubt; 15a) were, in that order, 0.1 µM and 9e-05 µM.
With `Cc1noc(C2CC3CCC2NC3)n1` (stereo in doubt; 22b), the K app in series [1] worked out at 5.2 µM; in series [2] it was 0.0025 µM.
With `CN1CCC=C(c2nc(N)no2)C1`, the K app was found to be 2.8 µM in series [1] and 0.0026 µM in series [2].
